The results in this text go back to patent US20250375525A1, “USE OF INDOCYANINE GREEN IN ANTIBACTERIAL OR BACTERICIDAL APPLICATION” (Buddhist Tzu Chi Medical Foundation, priority 2024, published 2025).

Data set [1] deals with HEK293 cells. Briefly: MTT analysis of cell survival rate after ICG and near-infrared light irradiation. It counts as cell-based, human. To be noted: ICG at different concentrations + near-infrared light (780 nm) irradiation. From the text: (§1) After administering ICG and near-infrared light (780 nm) excitation and irradiation to HEK293 cells and HT-1080-1B3 cells, observing the cell survival rates of different concentration groups by MTT analysis.

In data set [2] the test system is HT-1080-1B3 cells. The description is as above. To be noted: ICG at different concentrations + near-infrared light (780 nm) irradiation. Type of data set: cell-based.
Excerpt: as §1

Data set [3] has as its system mycoplasma. Briefly: DAPI staining of mycoplasma in HEK293 cells after ICG light treatment. Type of data set: cell-based. The following applies: 50 μg/mL ICG + 780 nm laser, 10 minutes. As for the experimental part: After HEK293 cells are treated with 50 μg/mL ICG and irradiated with near-infrared light excitation, the distribution of mycoplasma in each group was observed by DAPI staining (the red arrow indicates the expression position of mycoplasma). CTL: control group; −Laser: not excited by laser; +Laser: excited by laser.
(§2) First, HT1080-1B3 and HEK293 cells were collected through trypsin-EDTA reaction and then seeded into a six-well plate at a cell number of 3×10^5 cells/well. The next day, a working concentration of 50 μg/mL of ICG was added to each well, and the reaction took place in the dark at 37° C. for 1 hour. After the reaction was completed, the cells were irradiated with near-infrared light of 780 nm wavelength for 10 minutes. The supernatant was removed, and the cells were washed twice with PBS. Then, a working concentration of 1 μg/ml DAPI was added to each well, and the reaction took place in the dark at room temperature for 15 minutes. Finally, washed twice with PBS, and the quantitative changes of stained mycoplasma chromosomes were observed under the UV light mode of an inverted fluorescence microscope (Nikon).

The subject of data set [4] is mycoplasma. Nature of the data set: RT-PCR of mycoplasma DNA in HEK293 cells after ICG light treatment. Type of data set: cell-based. The following applies: 50 μg/mL ICG + 780 nm laser, 10 minutes. How it is done: (§3) (A) After HEK293 cells are treated with 50 μg/mL ICG and irradiated with near-infrared light excitation, the expression level of mycoplasma DNA in each group was observed by RT-PCR and DNA electrophoresis. (B) Results of DNA electrophoresis were quantitated by the Image J software (p-value: *<0.05, **<0.01, and ***<0.001).
(§4) HT1080-1B3 and HEK293 cells were collected through trypsin-EDTA reaction and then seeded into a six-well plate at a cell number of 3×10^5 cells/well. The next day, a working concentration of 50 μg/mL of ICG was added to each well, and the reaction took place in the dark at 37° C. for 1 hour. After the reaction was completed, the cells were irradiated with near-infrared light of 780 nm wavelength for 10 minutes, the supernatant was removed, and the cells were washed twice with PBS. Then, the cells were collected into a 1.5 mL test tube with trypsin-EDTA, 100 μL KAPA rapid extraction buffer was added to the test tube, and the test tube was placed in a dry bath at 75° C. for 10 minutes and at 95° C. for 5 minutes. Then, DNA samples were prepared according to the operating manual of the e-Myco™ VALID Mycoplasma PCR detection kit, and PCR reaction was performed by PCR instrument (Applied Biosystems) under setting conditions (30 cycles: 95° C./3 minutes, 95° C./15 seconds, 55° C./15 seconds, 72° C./20 seconds and 72° C./1 minute). […]

In data set [5] the test system is mycoplasma. Nature of the data set: DAPI staining of mycoplasma in HT1080-1B3 cells after ICG light treatment. Type of data set: cell-based. The following applies: HT-1080-1B3 cells (overexpress OATP1B3); 50 μg/mL indocyanine green + 780 nm laser, 10 minutes. As for the experimental part: After HT1080-1B3 cells are treated with 50 μg/mL ICG and irradiated with near-infrared light excitation, the distribution of mycoplasma in each group was observed by DAPI staining (the red arrow indicates the expression position of mycoplasma). CTL: control group; −Laser: not excited by laser; +Laser: excited by laser.
as §2

Data set [6] deals with mycoplasma. Nature of the data set: RT-PCR of mycoplasma DNA in HT1080-1B3 cells after ICG light treatment. The following applies: HT-1080-1B3 cells (overexpress OATP1B3); 50 μg/mL indocyanine green + 780 nm laser, 10 minutes. Type of data set: cell-based. As for the experimental part:
as §3, §4

Molecules are shown by their SMILES.

Take `CC1(C)C(/C=C/C=C/C=C/C=C2\N(CCCCS(=O)(=O)O)c3ccc4ccccc4c3C2(C)C)=[N+](CCCCS(=O)(=O)[O-])c2ccc3ccccc3c21` [ICG, Indocyanine green]: the “cell survival rate (MTT analysis)” value in data set [1] and in data set [2] was “no negative impact on cells” in each case. The “number of mycoplasma bacteria (DAPI staining)” value in data set [3] is “significantly reduced”; in data set [5], “disappears”. For the same compound, the entries for the “expression level of mycoplasma DNA (RT-PCR, DNA electrophoresis)” value in data set [4] and in data set [6] were “significantly reduce” and “no expression level of mycoplasma DNA was observed”, respectively.
